Experimental data from BindingDB's records for doi:10.1016/j.bmcl.2007.12.050 (Neurogen, 2008).

Test: Antagonist activity at CRF1 receptor expressed in mouse AtT20 cells assessed as inhibition of sauvagine-stimulated cAMP accumulation

Ki: 12 nM
SMILES: CCCN(CCC)c1c(C)nc(-c2c(C)cc(C)cc2OC)c2ccccc12 [1-(2-methoxy-4,6-dimethylphenyl)-3-methyl-N,N-dipropylisoquinolin-4-amine]
